Source: patent US20070105939A1, “Mesylate salt of 5-(2-dimethylaminoethoxy)-1H-indole-2-carboxylic acid [3-(4-hydroxycarbamoylphenyl)prop-2-ynyl]amide” (Pharmacyclics, Inc., priority 2005, published 2007)
Read-outs that look alike come from different tables or passages of the source.

Experiments:
[1] = in vivo
[2] = system: histone deacetylase enzyme H1; details: disclosed in PCT publication WO 2004/019174; cited from earlier work
[3] = Solubility (background statement)
[4] = Oral bioavailability (background statement); details: have to be administered parenterally for therapeutic effect

| SMILES | oral bioavailability [1] | inhibition of histone deacetylase enzyme H1 [2] | solubility [3] | oral bioavailability [4] |
| --- | --- | --- | --- | --- |
| CN(C)CCOc1ccc2[nH]c(C(=O)NCC#Cc3ccc(C(=O)NO)cc3)cc2c1 [5-(2-dimethylaminoethoxy)-1H-indole-2-carboxylic acid [3-(4-hydroxy-carbamoylphenyl)prop-2-ynyl]amide] | poor | inhibitors |  |  |
| CN(C)CCOc1ccc2[nH]c(C(=O)NCC#Cc3ccc(C(=O)NO)cc3)cc2c1.Cl [hydrochloride salt, 5-(2-dimethylaminoethoxy)-1H-indole-2-carboxylic acid [3-(4-hydroxy-carbamoylphenyl)prop-2-ynyl]amide hydrochloride] |  | inhibitors | poor | poor |
